Experiments:
Format in all cases: in vivo
[1] = system: Spodoptera littoralis; assay: Spodoptera littoralis, sprayed cotton leaf discs, L1 larvae; conditions: foliar, 72 h, cotton leaf discs sprayed at 200 ppm, 3 days after treatment
Description: Spodoptera littoralis (Egyptian Cotton Leafworm): Cotton leaf discs were placed on agar in a 24-well microtiter plate and sprayed with test solutions at an application rate of 200 ppm. After drying, the leaf discs were infested with 5 L1 larvae. The samples were checked for mortality, feeding behavior, and growth regulation 3 days after treatment (DAT).

[2] = system: Heliothis virescens; assay: Heliothis virescens, eggs on treated artificial diet; conditions: 96 h, 200 ppm (concentration in well 18 ppm), 4 days incubation
Description: Heliothis virescens (Tobacco Budworm): Eggs (0-24 h old) were placed in 24-well microtiter plate on artificial diet and treated with test solutions at an application rate of 200 ppm (concentration in well 18 ppm) by pipetting. After an incubation period of 4 days, samples were checked for egg mortality, larval mortality, and growth regulation.

[3] = system: Plutella xylostella; assay: Plutella xylostella, L2 larvae on treated artificial diet; conditions: 144 h, 200 ppm (concentration in well 18 ppm), 6 days incubation
Description: (§1) Plutella xylostella (Diamond Back Moth): 24-well microtiter plate (MTP) with artificial diet was treated with test solutions at an application rate of 200 ppm (concentration in well 18 ppm) by pipetting. After drying, the MTPs were infested with L2 larvae (7-12 per well). After an incubation period of 6 days, samples were checked for larval mortality and growth regulation.

[4] = system: Diabrotica balteata; assay: Diabrotica balteata, L2 larvae on treated artificial diet; conditions: 120 h, 200 ppm (concentration in well 18 ppm), 5 days incubation
Description: as §1, with “Diabrotica balteata (Corn Root Worm): A” for “Plutella xylostella (Diamond Back Moth):”, “(6-10” for “(7-12”, “5” for “6”

[5] = system: Thrips tabaci; assay: Thrips tabaci, sprayed sunflower leaf discs; conditions: foliar, 168 h, sunflower leaf discs sprayed at 200 ppm, mixed ages, mortality after 7 days
Description: Thrips tabaci (Onion Thrips): Sunflower leaf discs were placed on agar in a 24-well microtiter plate and sprayed with test solutions at an application rate of 200 ppm. After drying, the leaf discs were infested with an […] population of mixed ages. After an incubation period of 7 days, samples were checked for mortality.

[6] = system: Tetranychus urticae; assay: Tetranychus urticae, sprayed bean leaf discs; conditions: foliar, 192 h, bean leaf discs sprayed at 200 ppm, mixed ages, checked 8 days later
Description: Tetranychus urticae (Two-Spotted Spider Mite): Bean leaf discs on agar in 24-well microtiter plates were sprayed with test solutions at an application rate of 200 ppm. After drying, the leaf discs are infested with mite populations of mixed ages. 8 days later, discs are checked for egg mortality, larval mortality, and adult mortality.

[7] = system: Spodoptera littoralis; assay: Spodoptera littoralis (systemic), salad grown on treated agar, eggs; conditions: 120 h, application rate 12.5 ppm, checked 5 days after infestation (mortality, repellent effect, feeding behavior, growth regulation)
Description: Spodoptera littoralis (Systemic) (Egyptian Cotton Leaf Worm) Test compounds were applied by pipette into 24 well plates and mixed with agar. Salad seeds were placed on the agar and the multi well plate is closed by another plate which contains also agar. After 7 days the roots have absorbed the compound and the salad has grown into the lid plate. The salad leafs were now cut off into the lid plate. Spodoptera eggs were pipette through a plastic stencil on a humid gel blotting paper and the plate closed with it. The samples are checked for mortality, repellent effect, feeding behavior, and growth regulation 5 days after infestation. Application rate: 12.5 ppm

[8] = system: Myzus persicae; assay: Myzus persicae (sachet), mixed population, sucrose solution; conditions: 120 h, application rate 12.5 ppm, mortality 5 days after infestation
Description: Myzus persicae (Sachet) (Green Peach Aphid) Mixed Population Test compounds were applied by pipette into 24 well plates and mixed with Sucrose solution. The plates were closed with a stretched Parafilm. A plastic stencil with 24 holes is placed onto the plate and infested pea seedlings were placed directly on the Parafilm. The infested plate is closed with a gel blotting paper and another plastic stencil and then turned upside down. 5 days after infestation the samples were checked on mortality. Application rate: 12.5 ppm.

Cc1cc(C2=CC(c3cc(Cl)cc(Cl)c3)(C(F)(F)F)OC2)ccc1C(=O)NCc1ccc2c(c1)OCCO2 (stereo not drawn) [Compound A44]
≥ 80%: pest or weed control at 200 ppm [1] | pest or weed control at 200 ppm [2] | pest or weed control at 200 ppm [3] | pest or weed control at 200 ppm [4]

Cc1cc(C2=CC(c3cc(Cl)cc(Cl)c3)(C(F)(F)F)OC2)ccc1C(=O)NC1CC(=NOCC(F)(F)F)C1 (stereo not drawn) [Compound A79]
≥ 80%: pest or weed control at 200 ppm [1] | pest or weed control at 200 ppm [2] | pest or weed control at 200 ppm [3] | pest or weed control at 200 ppm [4] | pest or weed control at 200 ppm [5] | pest or weed control at 200 ppm [6]

Cc1cc(C2=COC(c3cc(Cl)cc(Cl)c3)(C(F)(F)F)C2)ccc1C(=O)NCC(F)(F)F (stereo not drawn) [Compound D1]
≥ 80%: pest or weed control at 12.5 ppm [7] | pest or weed control at 200 ppm [1] | pest or weed control at 200 ppm [2] | pest or weed control at 200 ppm [3] | pest or weed control at 200 ppm [4] | pest or weed control at 200 ppm [5]

CCCCNC(=O)c1ccc(C2=COC(c3cc(Cl)cc(Cl)c3)(C(F)(F)F)C2)cc1C (stereo not drawn) [Compound D3]
≥ 80%: pest or weed control at 200 ppm [1] | pest or weed control at 200 ppm [2] | pest or weed control at 200 ppm [3] | pest or weed control at 200 ppm [4] | pest or weed control at 12.5 ppm [8] | pest or weed control at 200 ppm [5] | pest or weed control at 200 ppm [6]

COCC(C)NC(=O)c1ccc(C2=COC(c3cc(Cl)cc(Cl)c3)(C(F)(F)F)C2)cc1C (stereo not drawn) [Compound D4]
≥ 80%: pest or weed control at 200 ppm [1] | pest or weed control at 200 ppm [2] | pest or weed control at 200 ppm [3] | pest or weed control at 200 ppm [4] | pest or weed control at 12.5 ppm [8] | pest or weed control at 200 ppm [5] | pest or weed control at 200 ppm [6]

Cc1cc(C2=COC(c3cc(Cl)cc(Cl)c3)(C(F)(F)F)C2)ccc1C(=O)NCCC(F)(F)F (stereo not drawn) [Compound D6]
≥ 80%: pest or weed control at 200 ppm [1] | pest or weed control at 200 ppm [2] | pest or weed control at 200 ppm [3] | pest or weed control at 200 ppm [4] | pest or weed control at 12.5 ppm [8] | pest or weed control at 200 ppm [5] | pest or weed control at 200 ppm [6]

CCC(C)NC(=O)c1ccc(C2=COC(c3cc(Cl)cc(Cl)c3)(C(F)(F)F)C2)cc1C (stereo not drawn) [Compound D7]
≥ 80%: pest or weed control at 200 ppm [1] | pest or weed control at 200 ppm [2] | pest or weed control at 200 ppm [3] | pest or weed control at 200 ppm [4] | pest or weed control at 12.5 ppm [8]

Cc1cc(C2=COC(c3cc(Cl)cc(Cl)c3)(C(F)(F)F)C2)ccc1C(=O)NCC1CCCO1 (stereo not drawn) [Compound D8]
≥ 80%: pest or weed control at 12.5 ppm [7] | pest or weed control at 200 ppm [1] | pest or weed control at 200 ppm [2] | pest or weed control at 200 ppm [3] | pest or weed control at 200 ppm [4] | pest or weed control at 12.5 ppm [8] | pest or weed control at 200 ppm [5] | pest or weed control at 200 ppm [6]

Cc1cc(C2=COC(c3cc(Cl)cc(Cl)c3)(C(F)(F)F)C2)ccc1C(=O)NCc1ccccc1 (stereo not drawn) [Compound D9]
≥ 80%: pest or weed control at 200 ppm [1] | pest or weed control at 200 ppm [2] | pest or weed control at 200 ppm [3] | pest or weed control at 200 ppm [4] | pest or weed control at 12.5 ppm [8] | pest or weed control at 200 ppm [5] | pest or weed control at 200 ppm [6]

Cc1cc(C2=COC(c3cc(Cl)cc(Cl)c3)(C(F)(F)F)C2)ccc1C(=O)NCc1ccccc1F (stereo not drawn) [Compound D10]
≥ 80%: pest or weed control at 200 ppm [1] | pest or weed control at 200 ppm [2] | pest or weed control at 200 ppm [3] | pest or weed control at 200 ppm [4] | pest or weed control at 12.5 ppm [8] | pest or weed control at 200 ppm [5] | pest or weed control at 200 ppm [6]

Cc1cc(C2=COC(c3cc(Cl)cc(Cl)c3)(C(F)(F)F)C2)ccc1C(=O)NC(C)c1ccccc1 (stereo not drawn) [Compound D11]
≥ 80%: pest or weed control at 200 ppm [1] | pest or weed control at 200 ppm [2] | pest or weed control at 200 ppm [3] | pest or weed control at 200 ppm [4] | pest or weed control at 12.5 ppm [8] | pest or weed control at 200 ppm [5] | pest or weed control at 200 ppm [6]

COc1ccc(CNC(=O)c2ccc(C3=COC(c4cc(Cl)cc(Cl)c4)(C(F)(F)F)C3)cc2C)cc1 (stereo not drawn) [Compound D12]
≥ 80%: pest or weed control at 200 ppm [1] | pest or weed control at 200 ppm [2] | pest or weed control at 200 ppm [3] | pest or weed control at 200 ppm [4] | pest or weed control at 12.5 ppm [8] | pest or weed control at 200 ppm [5] | pest or weed control at 200 ppm [6]

Cc1cc(C2=COC(c3cc(Cl)cc(Cl)c3)(C(F)(F)F)C2)ccc1C(=O)NCc1ccc(Cl)nc1 (stereo not drawn) [Compound D13]
≥ 80%: pest or weed control at 200 ppm [1] | pest or weed control at 200 ppm [2] | pest or weed control at 200 ppm [3] | pest or weed control at 200 ppm [4] | pest or weed control at 12.5 ppm [8] | pest or weed control at 200 ppm [6]

Cc1cc(C2=COC(c3cc(Cl)cc(Cl)c3)(C(F)(F)F)C2)ccc1C(=O)Nc1cccc(F)c1 (stereo not drawn) [Compound D14]
≥ 80%: pest or weed control at 200 ppm [1] | pest or weed control at 200 ppm [2] | pest or weed control at 200 ppm [3] | pest or weed control at 200 ppm [4] | pest or weed control at 12.5 ppm [8] | pest or weed control at 200 ppm [5] | pest or weed control at 200 ppm [6]

Cc1cc(NC(=O)c2ccc(C3=COC(c4cc(Cl)cc(Cl)c4)(C(F)(F)F)C3)cc2C)n(C)n1 (stereo not drawn) [Compound D16]
≥ 80%: pest or weed control at 200 ppm [1] | pest or weed control at 200 ppm [2] | pest or weed control at 200 ppm [3] | pest or weed control at 200 ppm [4] | pest or weed control at 12.5 ppm [8] | pest or weed control at 200 ppm [5]

Cc1csc(NC(=O)c2ccc(C3=COC(c4cc(Cl)cc(Cl)c4)(C(F)(F)F)C3)cc2C)n1 (stereo not drawn) [Compound D17]
≥ 80%: pest or weed control at 200 ppm [1] | pest or weed control at 200 ppm [2] | pest or weed control at 200 ppm [3] | pest or weed control at 200 ppm [4] | pest or weed control at 12.5 ppm [8]

Cc1cc(C2=COC(c3cc(Cl)cc(Cl)c3)(C(F)(F)F)C2)ccc1C(=O)NC1(C)CSC1 (stereo not drawn) [Compound D18]
≥ 80%: pest or weed control at 200 ppm [1] | pest or weed control at 200 ppm [2] | pest or weed control at 200 ppm [3] | pest or weed control at 200 ppm [4] | pest or weed control at 12.5 ppm [8] | pest or weed control at 200 ppm [5] | pest or weed control at 200 ppm [6]

CSCC(C)(C)NC(=O)c1ccc(C2=COC(c3cc(Cl)cc(Cl)c3)(C(F)(F)F)C2)cc1C (stereo not drawn) [Compound D19]
≥ 80%: pest or weed control at 200 ppm [1] | pest or weed control at 200 ppm [2] | pest or weed control at 200 ppm [3] | pest or weed control at 200 ppm [4] | pest or weed control at 12.5 ppm [8] | pest or weed control at 200 ppm [6]

Cc1cc(C2=COC(c3cc(Cl)cc(Cl)c3)(C(F)(F)F)C2)ccc1C(=O)NC1CC2CCC1C2 (stereo not drawn) [Compound D22]
≥ 80%: pest or weed control at 200 ppm [3] | pest or weed control at 200 ppm [4] | pest or weed control at 200 ppm [5]

Cc1cc(C2=COC(c3cc(Cl)cc(Cl)c3)(C(F)(F)F)C2)ccc1C(=O)NC1CCC1 (stereo not drawn) [Compound D23]
≥ 80%: pest or weed control at 200 ppm [1] | pest or weed control at 200 ppm [2] | pest or weed control at 200 ppm [3] | pest or weed control at 200 ppm [4] | pest or weed control at 12.5 ppm [8] | pest or weed control at 200 ppm [5] | pest or weed control at 200 ppm [6]

N#Cc1cc(C2=CC(c3cc(Cl)cc(Cl)c3)(C(F)(F)F)OC2)ccc1-n1cc(Br)cn1 (stereo not drawn) [Compound G2, 2-(4-Bromo-pyrazol-1-yl)-5-[5-(3,5-dichloro-phenyl)-5-trifluoromethyl-2,5-dihydro-furan-3-yl]-benzonitrile]
≥ 80%: pest or weed control at 200 ppm [1]

From US9714228B2, “Dihydrofuran derivatives as insecticidal compounds” (Syngenta Participations AG, priority 2010, dated 2017)
